Source: patent US9115159B2, “Phosphate compounds, a process for their preparation and pharmaceutical compositions containing them” (LES LABORATOIRES SERVIER, priority 2013, dated 2015)
Where two headings read alike, the source gives them in different places.

Key:
[1] = Solubility in aqueous medium buffered to physiological pH (phosphate 0.33M, pH 7.4); type: physicochemical; conditions: phosphate 0.33M, pH = 7.4
Method: The solubilities of the compounds were also measured in a medium buffered to physiological pH (cf. Table 3).

[2] = Pharmacokinetic profile / in vivo conversion after oral administration to SCID mice (plasma, LC-MS/MS); parameters: species or system female SCID mice; conditions: female, mouse, po, lipid formulation (PEG 300/ethanol/Phosal 50PG 30/10/60)
Method: The pharmacokinetic profile of the phosphate compounds of formula (I) is evaluated in a lipid formulation and in aqueous solution in female SCID mice. This is compared to the pharmacokinetic profile of compounds of formula (I′) in a lipid formulation. More specifically, 4-[{[3-(6-{[(3S)-3-(morpholin-4-ylmethyl)-3,4-dihydroisoquinolin-2(1H)-yl]-carbonyl}-1,3-benzodioxol-5-yl)-5,6,7,8-tetrahydroindolizin-1-yl]carbonyl}(phenyl)-amino]phenyl disodium phosphate (also referred to as the compound of Example 1) was tested and compared to N-(4-hydroxyphenyl)-3-{6-[((3S)-3-(4-morpholinylmethyl)-3,4-dihydro-2(1H)-isoquinolinyl)carbonyl]-1,3-benzodioxol-5-yl}-N-phenyl-5,6,7,8-tetrahydro-1-indolizine carboxamide (also referred to as the drug from Example 1).
The compound of Example 1 is prepared in a mixture of anhydrous ethanol/polyethylene glycol 300/water (10/40/50, v/v/v) intended for administration by the p.o. route. The study is carried out in 2 groups of SCID mice to which the compound of Example 1 is administered under the following conditions: • Group 1: 3 mg/kg p.o. (gavage, 10 mL/kg), • Group 2: 25 mg/kg p.o. (gavage, 10 mL/kg).
Blood samples are taken at the following points in time (3 samples per animal and 3 animals for each point in time): 0.25 hr, 0.5 hr, 1 hr, 2 hrs, 6 hrs and 24 hrs after oral administration.
The compound of Example 1 is also administered by the oral route in an aqueous medium to SCID mice, under the following conditions: • Group 1: 30 mg/kg p.o. dissolved in 1 mM sodium carbonate solution (gavage, 10 mL/kg), • Group 2: 100 mg/kg p.o. in water (gavage, 10 mL/kg).
Blood samples are taken at the following points in time (3 animals for each point in time and 1 sample per animal): 0.25 hr, 0.5 hr, 1 hr, 2 hrs, 4 hrs, 6 hrs and 24 hrs after oral administration.
For all formulations of the compound of Example 1, the blood thereby collected is centrifuged and the plasma is transferred to tubes containing 1M hydrochloric acid. The plasma concentrations of the phosphate compound (prodrug) and its hydroxylated homologue (drug) are determined simultaneously using a method of liquid chromatography coupled with mass spectrometric detection (TFC-LC-MS/MS). The limit of detection for both entities is 0.5 ng/mL.
The drug from Example 1 is prepared in a mixture of anhydrous ethanol/polyethylene glycol 300/water (10/40/50, v/v/v) intended for administration by the p.o. route. The study is carried out in several groups of SCID mice to which the drug from Example 1 is administered under the following conditions: • Group 1: 3 mg/kg p.o. (gavage, 10 mL/kg), • Group 2: 30 mg/kg p.o. (gavage, 10 mL/kg), • Group 3: 25 mg/kg p.o. (gavage, 10 mL/kg), • Group 4: 100 mg/kg p.o. (gavage, 10 mL/kg).
Blood samples are taken at the following points in time (3 animals for each point in time and 3 samples per animal for Groups 1-2 and 1 sample per animal for Groups 3 and 4): • p.o.: before administration and then 0.25 hr, 0.5 hr, 0.75 hr, 1 hr, 2 hrs, 4 hrs, 6 hrs, 8 hrs, 16 hrs and 24 hrs after oral administration at 3 and 30 mg/kg, • p.o.: 0.5 hr, 2 hrs, 6 hrs, 16 hrs and 24 hrs after oral administration at 25 mg/kg and 0.5 hr, 1 hr, 2 hrs, 6 hrs, 16 hrs, 30 hrs and 48 hrs after oral administration at 100 mg/kg.
The plasma from the blood samples collected after administration of the lipid formulations of the drug from the compound of Example 1 are analysed by liquid chromatography coupled with mass spectrometric detection. The limit of quantification of the drug from the compound of Example 1 is less than or equal to 0.5 ng/mL.
Non-compartmental pharmacokinetic analysis is carried out on the mean values of the plasma concentrations of the compounds tested. […]

[3] = In vitro test on human Caco-2 cells, cellular transport A to B; type: in vitro ADME; conditions: human, Caco-2, drug incubated and measured, A to B, 1 or 3 μM, read-out: Papp, the drug after incubation of the drug
Method: (§1) The cellular transport from A to B (Apical to Basolateral) of the phosphate compounds of formula (I) and the compounds of formula (I′) (corresponding drugs) is studied in human Caco-2 cells. Each compound is deposited apically at 1 or 3 μM (in duplicate) and then incubated for 120 minutes.
(§2) Several samples are taken during the experiment; • apically: immediately after deposition (t=0) and at 120 minutes • basolaterally: at the end of the experiment (120 minutes)
(§3) The concentrations of the phosphate compound (prodrug) and/or of its hydroxylated homologue (drug) are determined by liquid chromatography coupled with mass spectrometric detection (LC-MS/MS). The limit of quantification for both entities is 2 ng/mL.
(§4) The apparent permeability (Papp) and the predicted absorbed fraction (Fabs) in humans are calculated for the prodrug, for the drug after incubation of the prodrug and for the drug after incubation of the drug (Hubatsch et al, Nat Protoc. 2007; 2(9), 2111-2119).
(§5) The experiment yield, which corresponds to the ratio (in percent) of the total amount of compound found at the end of the experiment versus that incubated, is also calculated.

[4] = system: human Caco-2 cells; assay: as above; type: in vitro ADME; conditions: drug incubated and measured, 120 minutes; for Fabs (predicted absorbed fraction in humans), the drug after incubation of the drug: A to B, 1 or 3 μM
Method: as §1, §2, §3, §4, §5

[5] = system: cleaved (activated) form of caspase 3; assay: Quantification of the cleaved form of caspase 3 in vivo (MSD ELISA, RS4;11 xenograft tumour lysates); parameters: species or system mice (SCID strain); conditions: Table 2, 25 mg/kg oral, sampling time 2 hours, treated versus control mice
Method: The ability of the compounds of formula (I′) to activate caspase 3 is evaluated in a xenograft model of RS4;11 leukaemia cells.
1×10^7 RS4;11 cells are grafted sub-cutaneously into immunosuppressed mice (SCID strain). 25 to 30 days after the graft, the animals are treated orally with the various compounds. After treatment, the tumour masses are recovered and lysed, and the cleaved (activated) form of caspase 3 is quantified in the tumour lysates.
The quantification is carried out using the “Meso Scale Discovery (MSD) ELISA platform” test, which specifically assays the cleaved form of caspase 3. It is expressed in the form of an activation factor corresponding to the ratio between the quantity of cleaved caspase 3 in the treated mice divided by the quantity of cleaved caspase 3 in the control mice.
The ability of the compounds of formula (I) to activate caspase 3 is evaluated in a xenograft model of RS4;11 leukaemia cells in accordance with the protocol given in Example A2.

Compound	Solubility at 10 μM [1]	Solubility at 20 μM [1]	Solubility at 50 μM [1]	Solubility at 100 μM [1]	Papp A→B at 120 min [3] [×10⁻⁶ cm/s]	Yield (experiment yield), the drug after incubation of the drug [4]	Fabs (predicted absorbed fraction in humans), the drug after incubation of the drug [4]	also measured
Cc1c(C(=O)N(c2ccc(OP(=O)([O-])[O-])cc2)c2cnn(C)c2)cc(-c2cc(F)ccc2C(=O)N2Cc3ccccc3C[C@H]2CN2CCOCC2)n1C.[Na+].[Na+] [Example 15, 4-[{[5-(5-Fluoro-2-{[(3S)-3-(morpholin-4-ylmethyl)-3,4-dihydroisoquinolin-2(1H)-yl]carbonyl}phenyl)-1,2-dimethyl-1H-pyrrol-3-yl]carbonyl}(1-methyl-1H-pyrazol-4-yl)amino]phenyl disodium phosphate]	–	–	–	–	–	–	–	Activation factor +/− S.E.M. [5]: 12.1 +/− 1.1
C[C@@H]1Cc2ccccc2CN1C(=O)c1cc2c(cc1-c1cc(C(=O)N(c3ccc(O)cc3)c3cnc4c(ccn4C)c3)c3ccccn13)OCO2 [Drug from Example 4, N-(4-Hydroxyphenyl)-3-(6-{[(3R)-3-methyl-3,4-dihydroisoquinolin-2(1H)-yl]carbonyl}-1,3-benzodioxol-5-yl)-N-(1-methyl-1H-pyrrolo[2,3-b]pyridin-5-yl)-indolizine-1-carboxamide]	–	–	–	–	0.21	Yield (%) = 20	Fabs (%) = 46	–

Second part, led by results:

Solubility at 10 μM [1]	Solubility at 20 μM [1]	Solubility at 50 μM [1]	Solubility at 100 μM [1]	Papp A→B at 120 min [3] [×10⁻⁶ cm/s]	Yield (experiment yield), the drug after incubation of the drug [4]	Fabs (predicted absorbed fraction in humans), the drug after incubation of the drug [4]	Compound	also measured
Soluble	Soluble	Insoluble	Insoluble	0.49	Yield (%) = 100	Fabs (%) = 40	Cc1c(N(C(=O)c2cc(-c3cc(F)ccc3C(=O)N3Cc4ccccc4C[C@H]3CN3CCOCC3)n(C)c2C)c2ccc(O)cc2)cc(C#N)n1C [Drug from Example 25, N-(5-Cyano-1,2-dimethyl-1H-pyrrol-3-yl)-5-(5-fluoro-2-{[(3S)-3-(morpholin-4-ylmethyl)-3,4-dihydroisoquinolin-2(1H)-yl]carbonyl}phenyl)-N-(4-hydroxyphenyl)-1,2-dimethyl-1H-pyrrole-3-carboxamide]	AUC(0-t) ([2]; Drug from Example 25 administered 3 mg/kg p.o., read-out: AUCt, compound measured: Drug from Example 25): 37 ng·h/mL; Cmax ([2]; Drug from Example 25 administered 3 mg/kg p.o., read-out: Cmax, compound measured: Drug from Example 25): 33 ng/mL; Tmax ([2]; Drug from Example 25 administered 3 mg/kg p.o., read-out: Tmax, compound measured: Drug from Example 25): 1 h; AUC(0-t) ([2]; Drug from Example 25 administered 25 mg/kg p.o., read-out: AUCt, compound measured: Drug from Example 25): 5700 ng·h/mL; Cmax ([2]; Drug from Example 25 administered 25 mg/kg p.o., read-out: Cmax, compound measured: Drug from Example 25): 3000 ng/mL; Tmax ([2]; Drug from Example 25 administered 25 mg/kg p.o., read-out: Tmax, compound measured: Drug from Example 25): 1 h
Soluble	Insoluble	Insoluble	Insoluble	0.29	Yield (%) = 91	Fabs (%) = 25	Cc1c(N(C(=O)c2cc(-c3cc(Cl)ccc3C(=O)N3Cc4ccccc4C[C@H]3CN3CCOCC3)n(C)c2C)c2ccc(O)cc2)cc(C#N)n1C [Drug from Example 20, 5-(5-Chloro-2-{[(3S)-3-(morpholin-4-ylmethyl)-3,4-dihydroisoquinolin-2(1H)-yl]carbonyl}phenyl)-N-(5-cyano-1,2-dimethyl-1H-pyrrol-3-yl)-N-(4-hydroxyphenyl)-1,2-dimethyl-1H-pyrrole-3-carboxamide]	AUC(0-t) ([2]; Drug from Example 20 administered 3 mg/kg p.o., read-out: AUCt, compound measured: Drug from Example 20): 55 ng·h/mL; Cmax ([2]; Drug from Example 20 administered 3 mg/kg p.o., read-out: Cmax, compound measured: Drug from Example 20): 39 ng/mL; Tmax ([2]; Drug from Example 20 administered 3 mg/kg p.o., read-out: Tmax, compound measured: Drug from Example 20): 1 h; AUC(0-t) ([2]; Drug from Example 20 administered 25 mg/kg p.o., read-out: AUCt, compound measured: Drug from Example 20): 10200 ng·h/mL; Cmax ([2]; Drug from Example 20 administered 25 mg/kg p.o., read-out: Cmax, compound measured: Drug from Example 20): 5520 ng/mL; Tmax ([2]; Drug from Example 20 administered 25 mg/kg p.o., read-out: Tmax, compound measured: Drug from Example 20): 2 h
–	–	–	–	0.27	Yield (%) = 82	Fabs (%) = 24	Cc1c(C(=O)N(c2ccc(O)cc2)c2cc(C#N)n(C)c2)cc(-c2cc(Cl)ccc2C(=O)N2Cc3ccccc3C[C@H]2CN2CCOCC2)n1C [Drug from Example 21, 5-(5-Chloro-2-{[(3S)-3-(morpholin-4-ylmethyl)-3,4-dihydroisoquinolin-2(1H)-yl]carbonyl}phenyl)-N-(5-cyano-1-methyl-1H-pyrrol-3-yl)-N-(4-hydroxyphenyl)-1,2-dimethyl-1H-pyrrole-3-carboxamide]	–
